Series [1] deals with Escherichia coli. Briefly: Antibacterial activity against Escherichia coli MTCC 443 at 250 ug/ml after 24 hrs by agar well diffusion method. The series is classed as functional. To be noted: MTCC 443, 24 h, read-out: IZ. In general terms: A growth-free zone around the sample is the usual read-out of agar diffusion tests.
Series [2] relates to Pseudomonas aeruginosa. Briefly: Antibacterial activity against Pseudomonas aeruginosa MTCC 424 at 250 ug/ml after 24 hrs by agar well diffusion method. The series is classed as functional. To be noted: MTCC 424, 24 h, read-out: IZ.
Series [3] has as its system Staphylococcus aureus. Kind of series: Antibacterial activity against Staphylococcus aureus MTCC 96 at 250 ug/ml after 24 hrs by agar well diffusion method. The series is classed as functional. To be noted: MTCC 96, 24 h, read-out: IZ.
The test system of series [4] is Streptococcus pyogenes. Briefly: Antibacterial activity against Streptococcus pyogenes MTCC 442 at 250 ug/ml after 24 hrs by agar well diffusion method. The format is functional. Conditions: MTCC 442, 24 h, read-out: IZ.
Series [5] concerns the target DNA gyrase subunit A (Staphylococcus aureus, UniProt P20831). Kind of series: Inhibition of Staphylococcus aureus DNA gyrase A expressed in Escherichia coli BL21(DE3) using relaxed pBR322 DNA as substrate incubated for 1 hr by bromophenol blue dye based agarose gel electrophoresis method.
The nature of series [6]: Growth inhibition of human MCF7 cells after 24 hrs by MTT assay. Conditions: MCF7, 24 h. The series is classed as functional, cell-based. In general terms: Formazan colour is commonly taken as a measure of viable cells.
A short description of series [7]: Growth inhibition of human MCF7 cells at 10 to 150 ug/ml after 24 hrs by MTT assay relative to control. The format is functional.
A short description of series [8]: Growth inhibition of human G361 cells after 24 hrs by MTT assay. The format is functional, cell-based. To be noted: G-361, 24 h.
Series [9] can be described thus: Growth inhibition of human G361 cells at 10 to 150 ug/ml after 24 hrs by MTT assay relative to control. The format is functional, G-361.
The nature of series [10]: Growth inhibition of human MCF10 cells at 10 to 150 ug/ml after 24 hrs by MTT assay. The series is classed as cell-based. To be noted: mcf10, 24 h.

From ChEMBL document CHEMBL3877314, “Molecular docking, discovery, synthesis, and pharmacological properties of new 6-substituted-2-(3-phenoxyphenyl)-4-phenyl quinoline derivatives; an approach to developing potent DNA gyrase inhibitors/antibacterial agents” (Bioorg Med Chem, 2017) come the findings set out here.

Each structure is given as a SMILES string.

Chain of DNA gyrase subunit A (P20831 whole entry): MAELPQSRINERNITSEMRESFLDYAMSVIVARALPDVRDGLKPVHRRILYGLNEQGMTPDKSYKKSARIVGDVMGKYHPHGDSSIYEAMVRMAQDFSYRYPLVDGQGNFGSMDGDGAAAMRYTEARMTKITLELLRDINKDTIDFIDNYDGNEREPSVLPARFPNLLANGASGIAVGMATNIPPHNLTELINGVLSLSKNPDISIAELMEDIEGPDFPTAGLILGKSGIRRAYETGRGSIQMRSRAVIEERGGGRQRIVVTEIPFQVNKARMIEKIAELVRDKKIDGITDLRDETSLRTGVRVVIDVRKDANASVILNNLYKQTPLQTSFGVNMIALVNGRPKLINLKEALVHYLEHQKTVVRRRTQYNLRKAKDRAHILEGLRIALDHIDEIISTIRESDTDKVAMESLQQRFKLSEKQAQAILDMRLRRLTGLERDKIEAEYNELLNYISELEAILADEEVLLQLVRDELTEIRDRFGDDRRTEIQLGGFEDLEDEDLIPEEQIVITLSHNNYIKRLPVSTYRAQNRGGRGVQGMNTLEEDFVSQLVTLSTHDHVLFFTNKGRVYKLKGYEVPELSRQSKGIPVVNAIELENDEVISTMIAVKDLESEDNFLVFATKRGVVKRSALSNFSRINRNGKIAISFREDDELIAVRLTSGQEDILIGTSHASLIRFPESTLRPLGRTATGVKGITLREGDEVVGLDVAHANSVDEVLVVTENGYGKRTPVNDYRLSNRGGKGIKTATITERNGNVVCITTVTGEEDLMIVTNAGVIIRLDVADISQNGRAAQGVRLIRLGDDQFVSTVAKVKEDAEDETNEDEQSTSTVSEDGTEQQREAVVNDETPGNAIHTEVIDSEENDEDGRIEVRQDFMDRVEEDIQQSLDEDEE

A word on the IC50: it is the concentration at which inhibition is half-maximal. In the case of `Cc1cc2nc(-c3cccc(Oc4ccccc4)c3)cc(-c3ccccc3)c2cc1C`, the zone of inhibition at 250 µg/mL came to 22.5 mm in series [1], 11.4 mm in series [2], 27.5 mm in series [3] and 22.5 mm in [4]. Besides, the IC50 is 533 to 11500 nM in series [5], 3410 nM in series [6] and 5840 nM in [8]. The figures for the “growth inhibition (GI)” value in series [7], in series [9] and in series [10] were 48.34%, 38.18% and “Non-Toxic”, respectively.
Turning to `COc1ccc2nc(-c3cccc(Oc4ccccc4)c3)cc(-c3ccccc3)c2c1`, the zone of inhibition at 250 µg/mL worked out at 21.4 mm in series [1], 10.8 mm in series [2], 29.6 mm in [3] and 22.7 mm in [4]. Moreover, the IC50 in series [5] was 530 to 11500 nM; in series [6], 548 nM; in series [8] it was 2020 nM. Besides, the figures for the “growth inhibition (GI)” value in series [7], in series [9] and in [10] were 74.49%, 59.27% and “Non-Toxic”, respectively.
For `COc1cccc2c1C(=O)c1c(O)c3c(c(O)c1C2=O)C[C@@](O)(C(=O)CO)C[C@@H]3O[C@H]1C[C@H](N)[C@H](O)[C@H](C)O1` [DOXORUBICIN], the IC50 in series [6] lay in the range of 812 to 1200 nM. In series [7], the “growth inhibition (GI)” value is reported as 71.56%.
`CO[C@@H]1[C@@H](OC(=O)c2ccc(C)[nH]2)[C@@H](O)[C@H](Oc2ccc3c(O)c(NC(=O)c4ccc(O)c(CC=C(C)C)c4)c(=O)oc3c2Cl)OC1(C)C` [CHLOROBIOCIN]: in [5], the IC50 is 930 nM.
`Oc1ccc2nc(-c3cccc(Oc4ccccc4)c3)cc(-c3ccccc3)c2c1`: the zone of inhibition at 250 µg/mL in [1] stood at 26.5 mm; in series [2], 16.5 mm; in series [3], 34.6 mm; in [4], 29.8 mm. The IC50 in series [5] was 842 to 1070 nM; in series [6] it was 694 nM; in [8] it was 2070 nM. The “growth inhibition (GI)” value is listed as 72.56% in [7], 58.46% in series [9] and “Non-Toxic” in series [10].
With `Clc1ccc2nc(-c3cccc(Oc4ccccc4)c3)cc(-c3ccccc3)c2c1`, the zone of inhibition at 250 µg/mL in [1] was 18.1 mm; in series [2], 6.89 mm; in series [3], 21.6 mm; in series [4], 20.2 mm. Moreover, the values for the IC50 in series [5], in series [6] and in [8] were 525 to 11300 nM, 11000 nM and 12000 nM, respectively. Further, the “growth inhibition (GI)” value was 32.14% in series [7], 30.45% in series [9] and “Non-Toxic” in series [10].
With `Fc1ccc2nc(-c3cccc(Oc4ccccc4)c3)cc(-c3ccccc3)c2c1`, the zone of inhibition at 250 µg/mL in [1] worked out at 18.3 mm; in series [2], 10.4 mm; in series [3], 29.9 mm; in [4], 18.5 mm. The values for the IC50 in series [5], in [6] and in series [8] were 912 to 994 nM, 1680 nM and 3850 nM, respectively. Also, the “growth inhibition (GI)” value in series [7] is 60.25%; in [9], 46.24%; in series [10] it was “Non-Toxic”.
Turning to `Oc1c(Cl)cc2nc(-c3cccc(Oc4ccccc4)c3)cc(-c3ccccc3)c2c1Cl`, the zone of inhibition at 250 µg/mL in series [1] was determined as 26 mm; in series [2], 21.3 mm; in series [3], 38.5 mm; in series [4] it was 29.2 mm. The IC50 in series [5] was 467 nM; in series [6], 702 nM; in series [8], 2000 nM. Moreover, the “growth inhibition (GI)” value in series [7] is on record as 73.17%; in series [9], 60.34%; in series [10] it was “Non-Toxic”.
Regarding `N#Cc1ccc2nc(-c3cccc(Oc4ccccc4)c3)cc(-c3ccccc3)c2c1`, the zone of inhibition at 250 µg/mL came to 16.5 mm in series [1], 12.7 mm in series [2], 26.5 mm in series [3] and 21.2 mm in series [4]. Besides, the IC50 in series [5] is 537 to 11600 nM; in [6] it was 822 nM; in [8], 2150 nM. Also, the “growth inhibition (GI)” value was 70.64% in series [7], 54.38% in series [9] and “Non-Toxic” in series [10].
Take `Brc1ccc2nc(-c3cccc(Oc4ccccc4)c3)cc(-c3ccccc3)c2c1`: the zone of inhibition at 250 µg/mL in series [1] was 16.4 mm; in [2], 9.79 mm; in [3] it was 22.5 mm; in series [4], 22.4 mm. For the same compound, the IC50 is 473 to 10200 nM in series [5], 11100 nM in [6] and 14600 nM in series [8]. Further, the entries for the “growth inhibition (GI)” value in series [7], in series [9] and in series [10] were 30.81%, 28.89% and “Non-Toxic”, respectively.
On to `O=C(O)c1cn(C2CC2)c2cc(N3CCNCC3)c(F)cc2c1=O` [CIPROFLOXACIN], for which the zone of inhibition at 250 µg/mL in series [1] was in the range of 21 to 26.7 mm; in series [2], 21 to 23.8 mm; in series [3] it was 21 to 26.4 mm; in series [4], 18 to 24.4 mm.
